Data: ChEMBL document CHEMBL3797088, “Discovery and structure activity relationship study of novel indazole amide inhibitors for extracellular signal-regulated kinase1/2 (ERK1/2)” (Bioorg Med Chem Lett, 2016)
The source made the active and inactive calls. The rule behind the calls is not given here.

Key:
[1] = Apparent permeability in human Caco2 cells assessed as Fabs after 95 mins by LC-MS/MS analysis; type: ADME, cell-based; details: caco-2, 95 min
[2] = target: Mitogen-activated protein kinase 3 (Homo sapiens, UniProt P27361); assay: Inhibition of human recombinant GST-tagged ERK1 expressed in Escherichia coli using ser/thr 3 Peptide as substrate preincubated for 1 hr measured after 1 hr by Z-LYTE assay
Chain of Mitogen-activated protein kinase 3 (P27361 whole entry): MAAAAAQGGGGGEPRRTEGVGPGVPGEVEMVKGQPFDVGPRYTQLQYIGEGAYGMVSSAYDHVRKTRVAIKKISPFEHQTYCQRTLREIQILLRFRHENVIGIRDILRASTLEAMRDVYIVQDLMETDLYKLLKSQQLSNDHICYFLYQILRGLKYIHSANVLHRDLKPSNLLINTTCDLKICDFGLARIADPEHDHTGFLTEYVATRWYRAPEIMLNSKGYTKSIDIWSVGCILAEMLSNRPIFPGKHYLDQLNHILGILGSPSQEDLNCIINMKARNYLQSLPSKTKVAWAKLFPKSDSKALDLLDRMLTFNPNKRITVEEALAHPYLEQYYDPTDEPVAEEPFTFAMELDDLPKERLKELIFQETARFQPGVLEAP

[3] = target: Mitogen-activated protein kinase 1 (Homo sapiens, UniProt P28482); assay: Inhibition of human recombinant GST-tagged ERK2 expressed in Escherichia coli using ser/thr 3 Peptide as substrate preincubated for 1 hr measured after 1 hr by Z-LYTE assay
Chain of Mitogen-activated protein kinase 1 (P28482 whole entry): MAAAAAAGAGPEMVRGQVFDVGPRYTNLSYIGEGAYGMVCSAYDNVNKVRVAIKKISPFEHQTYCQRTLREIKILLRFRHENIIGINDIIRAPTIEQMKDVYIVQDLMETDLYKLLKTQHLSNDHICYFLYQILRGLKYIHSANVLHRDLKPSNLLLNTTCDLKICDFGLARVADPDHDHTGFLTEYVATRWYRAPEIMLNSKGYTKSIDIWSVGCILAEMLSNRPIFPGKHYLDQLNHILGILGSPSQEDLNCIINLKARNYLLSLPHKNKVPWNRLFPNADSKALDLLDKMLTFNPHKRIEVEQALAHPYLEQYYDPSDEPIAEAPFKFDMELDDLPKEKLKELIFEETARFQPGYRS

HT-29 = assay: Antiproliferative activity against human HT-29 cells harboring B-RAF V600E mutant after 72 hrs by SRB assay; type: functional, cell-based; details: HT-29, 72 h
[4] = target: Mitogen-activated protein kinase; ERK1/ERK2 (Homo sapiens) (UniProt P27361+P28482); assay: Inhibition of ERK1/ERK2 in human HT-29 cells assessed as reduction in p90RSK phosphorylation after 2 hrs by Western blot analysis; type: cell-based
Chain of Mitogen-activated protein kinase; ERK1/ERK2 (Homo sapiens) (P27361 whole entry, looked up): as the sequence (P27361 whole entry) above
Chain of Mitogen-activated protein kinase; ERK1/ERK2 (Homo sapiens) (P28482 whole entry, looked up): as the sequence (P28482 whole entry) above

[5] = target: Dual specificity mitogen-activated protein kinase kinase; MEK1/2 (Homo sapiens) (UniProt P36507+Q02750); assay: Inhibition of ERK phosphorylation in human HT-29 cells after 2 hrs by Western blot analysis; type: cell-based
Chain of Dual specificity mitogen-activated protein kinase kinase; MEK1/2 (Homo sapiens) (P36507 whole entry, looked up): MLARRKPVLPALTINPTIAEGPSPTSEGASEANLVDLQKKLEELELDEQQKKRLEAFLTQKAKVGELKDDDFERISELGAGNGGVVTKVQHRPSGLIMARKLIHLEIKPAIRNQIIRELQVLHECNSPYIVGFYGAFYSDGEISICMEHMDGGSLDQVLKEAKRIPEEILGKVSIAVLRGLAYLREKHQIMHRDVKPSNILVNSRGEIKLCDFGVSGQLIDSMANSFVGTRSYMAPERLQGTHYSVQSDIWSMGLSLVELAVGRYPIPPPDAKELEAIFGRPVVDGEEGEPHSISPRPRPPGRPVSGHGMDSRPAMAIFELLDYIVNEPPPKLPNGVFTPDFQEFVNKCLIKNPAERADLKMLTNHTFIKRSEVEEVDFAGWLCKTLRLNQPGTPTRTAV
Chain of Dual specificity mitogen-activated protein kinase kinase; MEK1/2 (Homo sapiens) (Q02750 whole entry, looked up): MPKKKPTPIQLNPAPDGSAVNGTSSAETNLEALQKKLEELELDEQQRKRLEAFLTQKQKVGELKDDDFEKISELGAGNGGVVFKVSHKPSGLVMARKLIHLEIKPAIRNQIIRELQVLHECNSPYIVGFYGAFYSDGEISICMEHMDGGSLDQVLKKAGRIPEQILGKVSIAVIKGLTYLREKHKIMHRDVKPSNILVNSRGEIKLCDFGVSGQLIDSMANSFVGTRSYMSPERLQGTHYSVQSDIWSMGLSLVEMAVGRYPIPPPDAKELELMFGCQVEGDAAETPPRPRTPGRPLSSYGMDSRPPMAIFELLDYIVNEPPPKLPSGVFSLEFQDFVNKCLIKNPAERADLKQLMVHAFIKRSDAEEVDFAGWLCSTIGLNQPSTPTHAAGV

[6] = target: Hepatocyte growth factor receptor (Homo sapiens, UniProt P08581); assay: Inhibition of c-MET (unknown origin) by Z-LYTE assay
[7] = target: Vascular endothelial growth factor receptor 1 (Homo sapiens, UniProt P17948); assay: Inhibition of FLT1 (unknown origin) by Z-LYTE assay
[8] = target: Epidermal growth factor receptor (Homo sapiens, UniProt P00533); assay: Inhibition of EGFR (unknown origin) by Z-LYTE assay
[9] = target: Platelet-derived growth factor receptor beta (Homo sapiens, UniProt P09619); assay: Inhibition of PDGFRbeta (unknown origin) by Z-LYTE assay
[10] = target: Receptor tyrosine-protein kinase erbB-2 (Homo sapiens, UniProt P04626); assay: Inhibition of ERBB2 (unknown origin) by Z-LYTE assay
Chain of Receptor tyrosine-protein kinase erbB-2 (P04626 whole entry): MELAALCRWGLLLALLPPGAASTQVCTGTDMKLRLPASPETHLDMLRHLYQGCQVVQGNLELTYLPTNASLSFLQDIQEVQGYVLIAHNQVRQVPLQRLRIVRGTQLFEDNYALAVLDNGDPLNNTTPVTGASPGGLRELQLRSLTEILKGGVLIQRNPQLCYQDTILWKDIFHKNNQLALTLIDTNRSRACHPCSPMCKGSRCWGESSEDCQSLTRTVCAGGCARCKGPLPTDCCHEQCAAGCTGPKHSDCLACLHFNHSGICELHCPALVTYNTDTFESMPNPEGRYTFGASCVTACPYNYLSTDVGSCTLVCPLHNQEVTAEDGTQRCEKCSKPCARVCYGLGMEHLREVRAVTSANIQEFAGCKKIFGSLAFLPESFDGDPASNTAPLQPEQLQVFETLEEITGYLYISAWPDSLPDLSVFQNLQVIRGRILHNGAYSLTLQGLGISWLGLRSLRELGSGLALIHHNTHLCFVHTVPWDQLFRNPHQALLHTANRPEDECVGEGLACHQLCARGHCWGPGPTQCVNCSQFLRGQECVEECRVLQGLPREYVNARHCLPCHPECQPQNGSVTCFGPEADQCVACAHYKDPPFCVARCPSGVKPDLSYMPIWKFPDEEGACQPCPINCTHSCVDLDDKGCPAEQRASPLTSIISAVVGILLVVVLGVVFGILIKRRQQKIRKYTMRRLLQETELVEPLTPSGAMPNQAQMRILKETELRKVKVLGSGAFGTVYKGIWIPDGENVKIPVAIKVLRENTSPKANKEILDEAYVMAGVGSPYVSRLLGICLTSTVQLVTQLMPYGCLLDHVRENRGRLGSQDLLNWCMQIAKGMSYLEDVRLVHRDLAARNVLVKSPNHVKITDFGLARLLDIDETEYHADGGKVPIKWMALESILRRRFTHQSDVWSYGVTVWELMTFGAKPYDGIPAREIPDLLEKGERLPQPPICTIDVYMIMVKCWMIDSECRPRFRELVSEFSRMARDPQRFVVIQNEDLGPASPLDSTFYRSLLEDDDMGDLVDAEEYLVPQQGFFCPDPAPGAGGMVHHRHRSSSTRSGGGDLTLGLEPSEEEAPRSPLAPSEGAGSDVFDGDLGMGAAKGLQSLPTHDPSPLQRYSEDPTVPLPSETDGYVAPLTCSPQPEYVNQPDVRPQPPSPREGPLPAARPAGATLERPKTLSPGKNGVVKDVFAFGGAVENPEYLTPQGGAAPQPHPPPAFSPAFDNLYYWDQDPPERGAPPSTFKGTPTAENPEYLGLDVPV

[11] = target: Vascular endothelial growth factor receptor 2 (Homo sapiens, UniProt P35968); assay: Inhibition of KDR (unknown origin) by Z-LYTE assay
[12] = target: Insulin-like growth factor 1 receptor (Homo sapiens, UniProt P08069); assay: Inhibition of IGF1R (unknown origin) by Z-LYTE assay
Ephrin type-A receptor 2 = Ephrin type-A receptor 2 (Homo sapiens, UniProt P29317); assay: Inhibition of EPHA2 (unknown origin) by Z-LYTE assay
[13] = target: Proto-oncogene tyrosine-protein kinase receptor Ret (Homo sapiens, UniProt P07949); assay: Inhibition of RET (unknown origin) by Z-LYTE assay
[14] = target: ALK tyrosine kinase receptor (Homo sapiens, UniProt Q9UM73); assay: Inhibition of ALK (unknown origin) by Z-LYTE assay
[15] = target: Proto-oncogene tyrosine-protein kinase Src (Homo sapiens, UniProt P12931); assay: Inhibition of c-Src (unknown origin) by Z-LYTE assay
Chain of Proto-oncogene tyrosine-protein kinase Src (P12931 2-536 limits assumed): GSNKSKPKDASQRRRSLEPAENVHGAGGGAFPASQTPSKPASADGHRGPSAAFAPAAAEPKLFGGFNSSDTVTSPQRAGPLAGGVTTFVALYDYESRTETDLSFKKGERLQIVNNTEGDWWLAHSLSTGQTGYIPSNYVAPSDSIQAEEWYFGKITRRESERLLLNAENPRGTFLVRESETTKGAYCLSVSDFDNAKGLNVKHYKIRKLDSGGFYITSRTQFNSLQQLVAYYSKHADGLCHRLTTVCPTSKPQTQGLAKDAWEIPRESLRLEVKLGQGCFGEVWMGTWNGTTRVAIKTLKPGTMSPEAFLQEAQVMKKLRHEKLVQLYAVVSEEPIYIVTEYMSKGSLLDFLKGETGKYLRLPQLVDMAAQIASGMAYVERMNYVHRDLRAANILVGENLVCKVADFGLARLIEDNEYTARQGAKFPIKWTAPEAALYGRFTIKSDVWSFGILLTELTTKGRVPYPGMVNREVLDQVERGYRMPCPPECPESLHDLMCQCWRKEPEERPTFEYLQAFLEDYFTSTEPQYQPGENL

[16] = target: Fibroblast growth factor receptor 1 (Homo sapiens, UniProt P11362); assay: Inhibition of FGFR1 (unknown origin) by Z-LYTE assay
Chain of Fibroblast growth factor receptor 1 (P11362 whole entry): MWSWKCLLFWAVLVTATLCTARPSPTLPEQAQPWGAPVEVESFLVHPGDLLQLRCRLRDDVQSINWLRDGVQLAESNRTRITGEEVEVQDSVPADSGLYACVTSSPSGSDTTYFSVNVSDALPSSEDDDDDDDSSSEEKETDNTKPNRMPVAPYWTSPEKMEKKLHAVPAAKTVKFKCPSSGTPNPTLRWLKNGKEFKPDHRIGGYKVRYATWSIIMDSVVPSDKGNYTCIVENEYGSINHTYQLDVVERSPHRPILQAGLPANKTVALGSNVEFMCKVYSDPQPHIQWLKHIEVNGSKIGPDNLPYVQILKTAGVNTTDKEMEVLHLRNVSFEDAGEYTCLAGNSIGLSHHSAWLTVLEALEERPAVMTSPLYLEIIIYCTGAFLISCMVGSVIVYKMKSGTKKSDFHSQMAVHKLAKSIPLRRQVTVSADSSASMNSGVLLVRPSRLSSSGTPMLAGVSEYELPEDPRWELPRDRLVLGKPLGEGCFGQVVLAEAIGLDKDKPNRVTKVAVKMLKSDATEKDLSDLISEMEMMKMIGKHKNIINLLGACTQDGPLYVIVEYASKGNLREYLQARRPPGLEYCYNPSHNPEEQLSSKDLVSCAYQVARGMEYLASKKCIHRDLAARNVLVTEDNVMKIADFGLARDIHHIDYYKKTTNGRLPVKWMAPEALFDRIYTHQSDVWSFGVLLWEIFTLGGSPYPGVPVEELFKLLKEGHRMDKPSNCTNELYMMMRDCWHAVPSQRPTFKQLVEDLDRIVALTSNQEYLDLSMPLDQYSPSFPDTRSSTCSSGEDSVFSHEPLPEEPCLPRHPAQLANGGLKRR

[17] = target: Tyrosine-protein kinase ABL1 (Homo sapiens, UniProt P00519); assay: Inhibition of ABL (unknown origin) by Z-LYTE assay
[18] = Clearance in mouse at 5 mg/kg, po or 1 mg/kg, iv; type: ADME, organism-based; details: in vivo
[19] = Oral bioavailability in mouse at 5 mg/kg; type: ADME, organism-based; details: in vivo
[20] = AUC (0 to 24 hrs) in mouse at 5 mg/kg, po; type: ADME, organism-based; set-up: dose 5 mg/kg, time < 24 hr, route oral; details: in vivo
[21] = AUC (0 to 24 hrs) in rat at 10 mg/kg, po; type: ADME, organism-based; set-up: time < 24 hr, dose 10 mg/kg, route oral; details: in vivo

| Structure (SMILES) | IC50 [2] [nM] | IC50 [3] [nM] | IC50 (HT-29) [nM] | further results |
| --- | --- | --- | --- | --- |
| O=C(NCCNc1ccccc1)c1ccc2[nH]nc(-c3ccncc3)c2c1 | – | 139 | 6700 | – |
| O=C(NCCc1ccccc1)c1ccc2[nH]nc(-c3ccncc3)c2c1 | 38.7 | 19.4 | 3300 | – |
| Cc1cc(-c2n[nH]c3ccc(C(=O)NC(C)c4c(Cl)cnc(Cl)c4Cl)cc23)ccn1 (stereo unspecified) | 22.2 | 13.2 | 713 | inhibition [4]: Dose-dependent effect; inhibition [5]: inactive |
| O=C(NCc1ccc(Cl)c(F)c1Cl)c1ccc2[nH]nc(-c3ccncc3)c2c1 | 29.2 | 11.9 | 1500 | – |
| O=C(NCc1c(Cl)cncc1Cl)c1ccc2[nH]nc(-c3ccncc3)c2c1 | 55.5 | 9.3 | 6100 | Fabs [1]: 99% |
| O=C(NCc1ccccc1)c1ccc2[nH]nc(-c3ccncc3)c2c1 | 106 | 50.6 | 13300 | – |
| O=C(NCc1c(Cl)cccc1Cl)c1ccc2[nH]nc(-c3ccncc3)c2c1 | – | 154 | 8400 | – |
| Cc1cc(-c2n[nH]c3ccc(C(=O)NCc4c(Cl)cnc(Cl)c4Cl)cc23)ccn1 | 16.7 | 7.9 | 1100 | – |
| O=C(NCCOc1ccccc1)c1ccc2[nH]nc(-c3ccncc3)c2c1 | – | 63.3 | 9100 | – |
| O=C(NCCCc1ccccc1)c1ccc2[nH]nc(-c3ccncc3)c2c1 | 42.9 | 33.8 | 4500 | – |
| O=C(NCc1ccccc1Cl)c1ccc2[nH]nc(-c3ccncc3)c2c1 | 46.3 | 31.3 | 2800 | – |
| CC(CNC(=O)c1ccc2[nH]nc(-c3ccncc3)c2c1)Oc1ccccc1 (stereo unspecified) | 128 | 38.6 | 6000 | – |
| CC(NC(=O)c1ccc2[nH]nc(-c3ccncc3)c2c1)c1ccccc1Cl (stereo unspecified) | 35.9 | 16.7 | 3500 | – |
| O=C(NCc1ccnc(Cl)c1)c1ccc2[nH]nc(-c3ccncc3)c2c1 | 26.4 | 22.5 | 9400 | – |
| CC(C)Nc1cc(-c2c[nH]c(C(=O)N[C@H](CO)c3ccccc3)c2)c(Cl)cn1 | – | 15.9 | 1600 | – |
| O=C(NCCc1cccc(Cl)c1)c1ccc2[nH]nc(-c3ccncc3)c2c1 | – | 425 | 15300 | – |
| CC(CNC(=O)c1ccc2[nH]nc(-c3ccncc3)c2c1)OCc1ccccc1 (stereo unspecified) | – | 88.7 | 3700 | – |

Further lines, with some results ahead:

| IC50 [2] [nM] | IC50 [3] [nM] | IC50 (HT-29) [nM] | Structure (SMILES) | further results |
| --- | --- | --- | --- | --- |
| 72.4 | 24.1 | 5500 | O=C(NC(CO)c1cccc(Cl)c1)c1ccc2[nH]nc(-c3ccncc3)c2c1 (stereo unspecified) | Fabs [1]: 69% |
| 833 | 219 | 16500 | O=C(N[C@@H](CO)c1cccc(Cl)c1)c1ccc2[nH]nc(-c3ccncc3)c2c1 | – |
| 74.2 | 12.6 | 2300 | O=C(NCc1cccc(Cl)c1)c1ccc2[nH]nc(-c3ccncc3)c2c1 | – |
| 66.9 | 15.6 | 20900 | Nc1cc(-c2n[nH]c3ccc(C(=O)NC(CO)c4cccc(Cl)c4)cc23)ccn1 (stereo unspecified) | – |
| 19.4 | 9.5 | 480 | Cc1cc(-c2n[nH]c3ccc(C(=O)N[C@@H](C)c4c(Cl)cccc4Cl)cc23)ccn1 | – |
| 154 | 53.1 | 900 | CC(NC(=O)c1ccc2[nH]nc(-c3ccncc3)c2c1)c1cccc(Cl)c1 (stereo unspecified) | IC50 [6]: > 1000 nM; IC50 [7]: > 1000 nM; IC50 [8]: > 1000 nM; IC50 [9]: > 1000 nM; IC50 [10]: > 1000 nM; IC50 [11]: > 1000 nM; IC50 [12]: > 1000 nM; IC50 (Ephrin type-A receptor 2): > 1000 nM; IC50 [13]: > 1000 nM; IC50 [14]: > 1000 nM; IC50 [15]: > 1000 nM; IC50 [16]: > 1000 nM; IC50 [17]: > 1000 nM |
| – | 469 | 7500 | C[C@H](NC(=O)c1ccc2[nH]nc(-c3ccncc3)c2c1)c1cccc(Cl)c1 | – |
| – | 632 | 10700 | Cc1cc(-c2n[nH]c3ccc(C(=O)N[C@H](C)c4c(Cl)cccc4Cl)cc23)ccn1 | – |
| – | 276 | 6000 | O=C(NC(CO)c1cccc(Cl)c1)c1ccc2[nH]nc(-c3ccccc3)c2c1 (stereo unspecified) | – |
| – | > 2000 | 7100 | CC(C)CC(NC(=O)c1ccc2[nH]nc(-c3ccncc3)c2c1)c1cccc(Cl)c1 (stereo unspecified) | – |
| 78.7 | 58.9 | 1500 | CCC(NC(=O)c1ccc2[nH]nc(-c3ccncc3)c2c1)c1cccc(Cl)c1 (stereo unspecified) | – |
| – | 226 | 10400 | Cc1cc(-c2n[nH]c3ccc(C(=O)NC(C)c4ccncc4)cc23)ccn1 (stereo unspecified) | – |
| – | 61.1 | 3400 | O=C(NC(CO)c1cc(Cl)cc(Cl)c1)c1ccc2[nH]nc(-c3ccncc3)c2c1 (stereo unspecified) | – |
| 111 | 32.9 | 2500 | O=C(NC(CO)c1cccc(Cl)c1)c1ccc2[nH]nc(-c3ccc(O)c(F)c3)c2c1 (stereo unspecified) | – |
| 53.4 | 17.9 | 2400 | Cc1cc(-c2n[nH]c3ccc(C(=O)NC(CO)c4cccc(Cl)c4)cc23)ccn1 (stereo unspecified) | – |
| 29.3 | 16.7 | 350 | Cc1cc(-c2n[nH]c3ccc(C(=O)NC(C)c4c(Cl)cncc4Cl)cc23)ccn1 (stereo unspecified) | inhibition [4]: Dose-dependent effect; clearance [18]: 163 mL/min/kg; IC50 [6]: > 1000 nM; IC50 [7]: > 1000 nM; IC50 [8]: > 1000 nM; IC50 [9]: > 1000 nM; inhibition [5]: inactive; IC50 [10]: > 1000 nM; IC50 [11]: > 1000 nM; IC50 [12]: > 1000 nM; IC50 (Ephrin type-A receptor 2): > 1000 nM; IC50 [13]: > 1000 nM; bioavailability [19]: 12%; IC50 [14]: > 1000 nM; IC50 [15]: > 1000 nM; IC50 [16]: > 1000 nM; IC50 [17]: > 1000 nM; AUC(0-t) at 24 h [20]: 61 ng·h/mL |
| – | 110 | 3800 | Cc1cc(-c2n[nH]c3ccc(C(=O)NC(C)c4cccc(Cl)c4)cc23)cc(C)n1 (stereo unspecified) | clearance [18]: 42 mL/min/kg; bioavailability [19]: 8%; AUC(0-t) at 24 h [20]: 162 ng·h/mL |
| 32.3 | 22.4 | 3300 | CC(NC(=O)c1ccc2[nH]nc(-c3cc(F)c(O)c(F)c3)c2c1)c1cccc(Cl)c1 (stereo unspecified) | – |
| – | 297 | 11500 | O=C(NC(CO)c1cccc(Cl)c1)c1ccc2[nH]nc(C3CCOCC3)c2c1 (stereo unspecified) | – |
| – | 25.8 | 900 | C[C@@H](NC(=O)c1ccc2[nH]nc(-c3ccncc3)c2c1)c1cccc(Cl)c1 | inhibition [4]: Dose-dependent effect; Fabs [1]: 100%; inhibition [5]: inactive; AUC(0-t) at 24 h [21]: 56 ng·h/mL |
| 26.3 | 7 | 1900 | O=C(N[C@H](CO)c1cccc(Cl)c1)c1ccc2[nH]nc(-c3ccncc3)c2c1 | – |
